Data reported in PubChem BioAssay (NCI).
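Where inhibition never reached the appropriate level, the endpoint shown equals the highest concentration tested. Otherwise, values were interpolated linearly from a five-concentration, 48-hour dose response in 96-well plates. The concentration for full growth arrest is given as TGI.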

Key:
Assay in all cases: NCI tumour cell line growth inhibition, 48 h
SK-MEL-2 melanoma = test system: SK-MEL-2 melanoma
HCC-2998 colon = test system: HCC-2998 colon
M14 melanoma = test system: M14 melanoma
HL-60(TB) leukemia = test system: HL-60(TB) leukemia
COLO 205 colon = test system: COLO 205 colon
OVCAR-3 ovarian = test system: OVCAR-3 ovarian
HOP-62 NSCLC = test system: HOP-62 NSCLC
OVCAR-8 ovarian = test system: OVCAR-8 ovarian
OVCAR-5 ovarian = test system: OVCAR-5 ovarian
SF-539 CNS = test system: SF-539 CNS
LOX IMVI melanoma = test system: LOX IMVI melanoma
RPMI-8226 leukemia = test system: RPMI-8226 leukemia
HCT-116 colon = test system: HCT-116 colon
NCI/ADR-RES ovarian = test system: NCI/ADR-RES ovarian
MDA-MB-231 breast = test system: MDA-MB-231 breast
UO-31 renal = test system: UO-31 renal
A549 NSCLC = test system: A549 NSCLC
K-562 leukemia = test system: K-562 leukemia
HS 578T breast = test system: HS 578T breast
786-0 renal = test system: 786-0 renal
MDA-MB-435 = test system: MDA-MB-435
BT-549 breast = test system: BT-549 breast
IGROV1 ovarian = test system: IGROV1 ovarian
KM12 colon = test system: KM12 colon
MDA-N = test system: MDA-N
A498 renal = test system: A498 renal
MOLT-4 leukemia = test system: MOLT-4 leukemia
MALME-3M melanoma = test system: MALME-3M melanoma
CCRF-CEM leukemia = test system: CCRF-CEM leukemia
NCI-H226 lung = test system: NCI-H226 lung
SN12C renal = test system: SN12C renal
NCI-H23 lung = test system: NCI-H23 lung
SNB-19 CNS = test system: SNB-19 CNS
TK-10 renal = test system: TK-10 renal
SW-620 colon = test system: SW-620 colon
SNB-75 CNS = test system: SNB-75 CNS
PC-3 prostate = test system: PC-3 prostate
CAKI-1 renal = test system: CAKI-1 renal
SK-MEL-5 melanoma = test system: SK-MEL-5 melanoma
U251 CNS = test system: U251 CNS
HT29 colon = test system: HT29 colon
NCI-H460 lung = test system: NCI-H460 lung
SF-295 CNS = test system: SF-295 CNS
NCI-H522 lung = test system: NCI-H522 lung
DU-145 prostate = test system: DU-145 prostate
SK-OV-3 ovarian = test system: SK-OV-3 ovarian
SF-268 CNS = test system: SF-268 CNS
EKVX NSCLC = test system: EKVX NSCLC
OVCAR-4 ovarian = test system: OVCAR-4 ovarian
UACC-257 melanoma = test system: UACC-257 melanoma
MCF7 breast = test system: MCF7 breast
HOP-92 NSCLC = test system: HOP-92 NSCLC
ACHN renal = test system: ACHN renal
HCT-15 colon = test system: HCT-15 colon
SK-MEL-28 melanoma = test system: SK-MEL-28 melanoma
UACC-62 melanoma = test system: UACC-62 melanoma
T-47D breast = test system: T-47D breast
SR leukemia = test system: SR leukemia
RXF 393 renal = test system: RXF 393 renal

For `O=C(O)CN(CC(=O)O)C1CCCCC1N1CC(=O)OC(=O)C1` (stereo unspecified), the TGI (SK-MEL-2 melanoma) was over 100 µM, the TGI (HCC-2998 colon) was over 100 µM and the TGI (M14 melanoma) was over 100 µM. It also gave a TGI (HL-60(TB) leukemia) of over 100 µM, a TGI (COLO 205 colon) of over 100 µM and a TGI (OVCAR-3 ovarian) of over 100 µM. For the same compound, the TGI (HOP-62 NSCLC) was over 100 µM, the TGI (OVCAR-8 ovarian) was over 100 µM and the TGI (OVCAR-5 ovarian) was over 100 µM. It also gave a TGI (SF-539 CNS) of over 100 µM, a TGI (LOX IMVI melanoma) of over 100 µM and a TGI (RPMI-8226 leukemia) of over 100 µM. It also gave a TGI (HCT-116 colon) of over 100 µM, a TGI (NCI/ADR-RES ovarian) of over 100 µM and a TGI (MDA-MB-231 breast) of over 100 µM. It also gave a TGI (UO-31 renal) of over 100 µM, a TGI (A549 NSCLC) of over 100 µM and a TGI (K-562 leukemia) of over 100 µM. The TGI (HS 578T breast) was over 100 µM, the TGI (786-0 renal) was over 100 µM and the TGI (MDA-MB-435) was over 100 µM. It also gave a TGI (BT-549 breast) of over 100 µM, a TGI (IGROV1 ovarian) of over 100 µM and a TGI (KM12 colon) of over 100 µM. For the same compound, the TGI (MDA-N) was over 100 µM, the TGI (A498 renal) was over 100 µM and the TGI (MOLT-4 leukemia) was over 100 µM. For the same compound, the TGI (MALME-3M melanoma) was over 100 µM, the TGI (CCRF-CEM leukemia) was over 100 µM and the TGI (NCI-H226 lung) was over 100 µM. The TGI (SN12C renal) was over 100 µM, the TGI (NCI-H23 lung) was over 100 µM and the TGI (SNB-19 CNS) was over 100 µM. It also gave a TGI (TK-10 renal) of over 100 µM, a TGI (SW-620 colon) of over 100 µM and a TGI (SNB-75 CNS) of 95.5 µM. For the same compound, the TGI (PC-3 prostate) was over 100 µM, the TGI (CAKI-1 renal) was over 100 µM and the TGI (SK-MEL-5 melanoma) was over 100 µM. It also gave a TGI (U251 CNS) of over 100 µM, a TGI (HT29 colon) of over 100 µM and a TGI (NCI-H460 lung) of over 100 µM. For the same compound, the TGI (SF-295 CNS) was over 100 µM, the TGI (NCI-H522 lung) was over 100 µM and the TGI (DU-145 prostate) was over 100 µM. The TGI (SK-OV-3 ovarian) was over 100 µM, the TGI (SF-268 CNS) was over 100 µM and the TGI (EKVX NSCLC) was over 100 µM. The TGI (OVCAR-4 ovarian) was over 100 µM, the TGI (UACC-257 melanoma) was over 100 µM and the TGI (MCF7 breast) was over 100 µM. For the same compound, the TGI (HOP-92 NSCLC) was over 100 µM, the TGI (ACHN renal) was over 100 µM and the TGI (HCT-15 colon) was over 100 µM. For the same compound, the TGI (SK-MEL-28 melanoma) was over 100 µM, the TGI (UACC-62 melanoma) was over 100 µM and the TGI (T-47D breast) was over 100 µM. The TGI (SR leukemia) was over 100 µM.
Work on `C=CCn1c(=O)c(C)cn(COCCO)c1=O` yielded a TGI (SK-MEL-2 melanoma) of over 100 µM, a TGI (HCC-2998 colon) of over 100 µM and a TGI (M14 melanoma) of over 100 µM. The TGI (COLO 205 colon) was over 100 µM, the TGI (OVCAR-3 ovarian) was over 100 µM and the TGI (HOP-62 NSCLC) was over 100 µM. For the same compound, the TGI (OVCAR-8 ovarian) was over 100 µM, the TGI (OVCAR-5 ovarian) was over 100 µM and the TGI (SF-539 CNS) was over 100 µM. For the same compound, the TGI (LOX IMVI melanoma) was over 100 µM, the TGI (RPMI-8226 leukemia) was over 100 µM and the TGI (NCI/ADR-RES ovarian) was over 100 µM. The TGI (MDA-MB-231 breast) was over 100 µM, the TGI (UO-31 renal) was over 100 µM and the TGI (A549 NSCLC) was over 100 µM. For the same compound, the TGI (K-562 leukemia) was over 100 µM, the TGI (HS 578T breast) was over 100 µM and the TGI (MDA-MB-435) was over 100 µM. The TGI (BT-549 breast) was over 100 µM, the TGI (IGROV1 ovarian) was over 100 µM and the TGI (KM12 colon) was over 100 µM. For the same compound, the TGI (MDA-N) was over 100 µM, the TGI (MOLT-4 leukemia) was over 100 µM and the TGI (MALME-3M melanoma) was over 100 µM. It also gave a TGI (CCRF-CEM leukemia) of over 100 µM, a TGI (NCI-H226 lung) of over 100 µM and a TGI (SN12C renal) of over 100 µM. The TGI (NCI-H23 lung) was over 100 µM, the TGI (SNB-19 CNS) was over 100 µM and the TGI (TK-10 renal) was over 100 µM. For the same compound, the TGI (SW-620 colon) was over 100 µM, the TGI (SNB-75 CNS) was over 100 µM and the TGI (PC-3 prostate) was over 100 µM. For the same compound, the TGI (CAKI-1 renal) was over 100 µM, the TGI (SK-MEL-5 melanoma) was over 100 µM and the TGI (RXF 393 renal) was over 100 µM. For the same compound, the TGI (U251 CNS) was over 100 µM, the TGI (HT29 colon) was over 100 µM and the TGI (NCI-H460 lung) was over 100 µM. For the same compound, the TGI (NCI-H522 lung) was over 100 µM, the TGI (DU-145 prostate) was over 100 µM and the TGI (SF-268 CNS) was over 100 µM. The TGI (EKVX NSCLC) was over 100 µM, the TGI (UACC-257 melanoma) was over 100 µM and the TGI (MCF7 breast) was over 100 µM. The TGI (HOP-92 NSCLC) was over 100 µM, the TGI (ACHN renal) was over 100 µM and the TGI (SK-MEL-28 melanoma) was over 100 µM. The TGI (T-47D breast) was over 100 µM.
For `CN(C)CCNc1ccc2c(=O)n(CCN(C)C)c(=O)n3c4ccc(O)cc4c(=O)c1c23`, the TGI (SK-MEL-2 melanoma) was 0.602 µM, the TGI (HCC-2998 colon) was 0.186 µM and the TGI (M14 melanoma) was 1.86 µM. The TGI (COLO 205 colon) was 0.099 µM, the TGI (OVCAR-3 ovarian) was 1.29 µM and the TGI (OVCAR-8 ovarian) was 0.358 µM. The TGI (OVCAR-5 ovarian) was 2.34 µM, the TGI (SF-539 CNS) was under 0.0389 µM and the TGI (LOX IMVI melanoma) was 0.217 µM. The TGI (RPMI-8226 leukemia) was 0.417 µM, the TGI (HCT-116 colon) was 0.308 µM and the TGI (NCI/ADR-RES ovarian) was 9.39 µM. For the same compound, the TGI (MDA-MB-231 breast) was 0.12 µM, the TGI (UO-31 renal) was 0.282 µM and the TGI (A549 NSCLC) was 1.47 µM. The TGI (HS 578T breast) was 0.961 µM, the TGI (786-0 renal) was 0.156 µM and the TGI (MDA-MB-435) was 0.259 µM. It also gave a TGI (BT-549 breast) of 2.35 µM, a TGI (IGROV1 ovarian) of 0.53 µM and a TGI (KM12 colon) of 2.15 µM. The TGI (MDA-N) was 0.26 µM, the TGI (A498 renal) was 0.515 µM and the TGI (MOLT-4 leukemia) was under 0.01 µM. It also gave a TGI (MALME-3M melanoma) of 0.45 µM, a TGI (CCRF-CEM leukemia) of under 0.01 µM and a TGI (NCI-H226 lung) of 0.322 µM. It also gave a TGI (NCI-H23 lung) of 0.186 µM, a TGI (SNB-19 CNS) of 0.729 µM and a TGI (TK-10 renal) of 1.21 µM. The TGI (SW-620 colon) was 0.67 µM, the TGI (SNB-75 CNS) was 0.305 µM and the TGI (PC-3 prostate) was 4.52 µM. The TGI (SK-MEL-5 melanoma) was 0.211 µM, the TGI (RXF 393 renal) was 0.224 µM and the TGI (U251 CNS) was 0.439 µM. For the same compound, the TGI (HT29 colon) was 0.229 µM, the TGI (NCI-H460 lung) was 0.174 µM and the TGI (SF-295 CNS) was 0.148 µM. For the same compound, the TGI (NCI-H522 lung) was 0.221 µM, the TGI (DU-145 prostate) was 0.0781 µM and the TGI (SK-OV-3 ovarian) was 1.04 µM. For the same compound, the TGI (SF-268 CNS) was 0.416 µM, the TGI (EKVX NSCLC) was 0.57 µM and the TGI (OVCAR-4 ovarian) was 0.38 µM. It also gave a TGI (UACC-257 melanoma) of 0.795 µM, a TGI (MCF7 breast) of 0.634 µM and a TGI (HOP-92 NSCLC) of 0.0941 µM. It also gave a TGI (ACHN renal) of under 0.01 µM, a TGI (HCT-15 colon) of 4.35 µM and a TGI (SK-MEL-28 melanoma) of 0.863 µM. The TGI (UACC-62 melanoma) was 0.147 µM, the TGI (T-47D breast) was 0.717 µM and the TGI (SR leukemia) was under 0.01 µM.
